Read-outs that look alike come from different tables or passages of the source. Marks after values point to notes of the source that are not given here. Values belong to the molecule of their own block, whether it stands above or below them.
Experiments:
[1] = Acid catalyzed dissociation kinetics of Gadopiclenol (isomeric mixture) and of enantiomers pair C coupled with isoserinol in 1.0 M HCl, followed by HPLC; assay type: physicochemical; details: 1.0M HCl, 25° C.; fitting of area-time data
Experimental: The average half-life of the obtained conjugated compounds and of Gadopiclenol (isomeric mixture) were calculated considering the decrease of the HPLC total area over time as described in detail in Example 8. For amide derivatives obtained by reaction of RRR/SSS Gd(PCTA-tris-glutaric acid) with i) R-isoserinol; ii)S-isoserinol; and iii) racemic isoserinol the kX pseudo-first-order rate constants and half-lives (t1/2=ln 2/kX) were also calculated by fitting the area—time data pairs as carried out for RRR/SSS Gd(PCTA-tris-glutaric acid) in Example 7.
The HPLC measurements were performed with Thermo Finnigan LCQ DECA XPPlus system according to the analytical Procedure 2.
HPLC chromatogram of Gadopiclenol collected as isomeric mixture from Example 2 is characterized by the presence of 4 major peaks (identified for convenience as A′, B′, C′ and D′) having the same MS and UV-Vis spectra. However, there is only one signal in the HPLC chromatogram of the complex compounds obtained by coupling the enantiomers pair C with isoserinol, whether it is R, S isoserinol or racemic-isoserinol (FIG. 6). Since, as observed, the chirality of the isoserinol pendant has no influence on the retention time of coupled diastereoisomers, the presence of 4 signals in the HPLC chromatograms of Gadopiclenol (isomeric mixture) could be interpreted by the presence of 4 enantiomer pairs formed with the stereocenters of the of the glutaric acid residue: 1) RRR-SSS (Signal D′), 2) RSR-SRS, 3) RRS-SSR and 4) RSS-SRR.
The progress of the reactions was checked by HPLC over time, plotting the area values of the peaks of the complex as a function of time, as above discussed in Example 7 for Gd(PCTA-tris-glutaric acid) isomers.
As expected, the integral values of A′, B′, C′, and D′ decrease over time, whereas the peak of the free ligand increases. […] The half-life of complexes obtained by coupling the enantiomers pair C with R, S and racemic-isoserinol was also calculated from the half of the area values in the HPLC chromatograms.

[2] = Relaxometric properties: longitudinal relaxivity r1; assay type: physicochemical
Experimental: The relaxometric properties of the PCTA-based complex compounds according to the invention have been measured at different magnetic field strengths, i.e. 0.47 and 1.41 T, at 37° C. and in different media (water and human plasma) and compared with relaxivity values measured, at the same conditions, for Gd-Complex having an analogous coordination cage.
The longitudinal water proton relaxation rate (R1=1/T1) was measured at 0.47 T with a Minispec MQ-20 spectrometer (Bruker Biospin, Germany) operating at a proton Larmor frequency of 20 MHz; MR experiments at 1.41 T were performed using a Minispec MQ-60 spectrometer (Bruker Biospin, Germany) operating at a proton Larmor frequency of 60 MHz.
All test articles were used as supplied and diluted in the selected medium (water or human plasma) by weighting the required amount of paramagnetic chelated complex to get a 5 or 10 mM starting solution.
Five different concentration samples (0.1, 0.25, 0.5, 0.75 and 1 mM) for each medium have been prepared by further dilution of the starting 5 or 10 mM solution.
Relaxivity measurements were performed at 0.47 T and 1.41 T at a preset temperature sample of 37° C., kept constant by means of a thermostatic bath connected to the sample holder of the spectrometer. The five sample solutions have been preliminary pre-heated at 37° C. in an external thermostatic bath and then left 10 minutes inside the internal bath to assure the stabilization of the temperature. Longitudinal relaxation time T1 was measured by means of a standard inversion recovery sequence, where the inversion time (TI) was varied from 10 ms to at least 5 times T1 in 15 steps. Statistical analysis (mono-exponential fitting for T1 measurement, linear fitting for the evaluation of longitudinal relaxivity) was performed by Mathematica® (Wolfram, USA). Errors on the estimated parameters were evaluated by the fitting procedure.

[3] = 1.0M HCl (pH 0), 25° C.; literature value; cited from earlier work
[4] = 1.0M HCl, 25° C.; literature value; cited from earlier work
[5] = pH 0
Experimental: In order to investigate the kinetic inertness of the racemic mixture of the Gd(PCTA-tris-glutaric acid) and, particularly, of the four enantiomer pairs thereof separated by HPLC, we investigated their dissociation reactions taking place under acidic conditions. A large excess of H^+ ([HCl]=1.0 M) was in particular exploited in order to guarantee the pseudo-first order kinetic conditions.
A solution of Gd(PCTA-tris-glutaric acid) (isomeric mixture) in 1 M HCl was prepared and was analysed over the time as explained in Example 7.
In particular, the area value for each of the A, B, C, and D peaks was assessed over the time by HPLC.
The decrease of the integral area values of signals of A, B, C, and D was thus assessed and plotted as a function of the time.
kX pseudo-first-order rate constants (where kX is =kA, kB, kC and kD respectively), characterizing the dissociation rate of the different enantiomer pairs of the Gd(PCTA-tris-glutaric acid) complex and half-lives (t1/2=ln2/kX) were then calculated by fitting the area —time data pairs, as explained in details in Example 7. The average half-life value for the isomeric mixture of Gd(PCTA-tris-glutaric acid) was also obtained, by considering the percentage composition of the mixture. […]

[6] = cited from earlier work
[7] = cited from earlier work; remark: listed apart in the source

Molecule: O=C(CCC(C(=O)[O-])N1CCN(C(CCC(=O)NCC(O)CO)C(=O)[O-])Cc2cccc(n2)CN(C(CCC(=O)NCC(O)CO)C(=O)[O-])CC1)NCC(O)CO.[Gd+3] (single isomer, unassigned) [Enantiomers pair C + R-isoserinol]
kx (s^−1) pseudo-first-order rate constant of acid catalyzed dissociation [1]: (4.9 ± 0.4) × 10^−6 s^−1 | r1 (mM^−1s^−1) H2O, 0.5T, 37° C. [2]: 12.9 ± 0.1 mM⁻¹ s⁻¹ | r1 (mM^−1s^−1) HSA, 1.5T, 37° C. [2]: 14.0 ± 0.3 mM⁻¹ s⁻¹

Molecule: O=C([O-])CN1CCN(CC(=O)[O-])CCN(CC(=O)O)CCN(CC(=O)[O-])CC1.[Gd+3] [Dotarem, Gd-DOTA]
k1 (s^−1) rate constant of acid catalyzed dissociation [3]: 8e-06 s⁻¹ | kx (s^−1) rate constant of acid catalyzed dissociation [4]: 8e-06 s⁻¹

Molecule: O=C([O-])CN1CCN(CC(=O)[O-])Cc2cccc(n2)CN(CC(=O)[O-])CC1.[Eu+3] [Eu(PCTA), europium complex of the 3,6,9,15-tetraazabicyclo[9.3.1]pentadeca-1(15),11,13-triene-3,6,9,-triacetic acid]
k1 (s^−1) rate constant of acid catalyzed dissociation [3]: 0.000508 s⁻¹ | kx (s^−1) rate constant of acid catalyzed dissociation [4]: 0.000508 s⁻¹

Molecule: gadolinium chelate of 2,2′,2″-(3,6,9-triaza-1(2,6)-pyridinacyclodecaphane-3,6,9-triyl)tris(5-((2,3-dihydroxypropyl)amino)-5-oxopentanoic acid) [Gadopiclenol (isomeric mixture)]
stability (log K^term) ([6]; Investigative Radiology 2019, Vol 54, (8), 475-484): 18.7 | thermodynamic equilibrium constant (log K^term) ([6]; reported in EP 2988756): 14.9 | r1 (mM^−1s^−1) H2O, 0.5T, 37° C. ([7]; H2O, 0.5T, 37° C., value reported in EP 1931673): 11* mM^−1s^−1 | r1 (mM^−1s^−1) HSA, 1.5T, 37° C. ([7]; HSA, 1.5T, 37° C., value reported in Invest. Radiol. 2015, 50, 835-842): 12.8 ± 1.3** mM^−1s^−1 | relaxivity ([7]; in human serum (37° C., 1.41 T), Investigative Radiology 2019, Vol 54, (8), 475-484): 12.8 mM⁻¹ s⁻¹ | relaxivity ([7]; in water, at 0.5 T, 37° C., reported in EP1931673): 11 mM^−1s^−1Gd^−1

Second part, led by results:

r1 (mM^−1s^−1) H2O, 0.5T, 37° C. [2]: 12.9 ± 0.2 mM⁻¹ s⁻¹ | r1 (mM^−1s^−1) HSA, 1.5T, 37° C. [2]: 13.9 ± 0.2 mM⁻¹ s⁻¹
Molecule: O=C(CCC(C(=O)[O-])N1CCN(C(CCC(=O)NCC(O)CO)C(=O)[O-])Cc2cccc(n2)CN(C(CCC(=O)NCC(O)CO)C(=O)[O-])CC1)NCC(O)CO.[Gd+3] (single isomer, unassigned) [Enantiomers pair C + S-isoserinol]
kx (s^−1) pseudo-first-order rate constant of acid catalyzed dissociation [1]: (4.6 ± 0.3) × 10^−6 s^−1

r1 (mM^−1s^−1) H2O, 0.5T, 37° C. [2]: 13.0 ± 0.1 mM⁻¹ s⁻¹ | r1 (mM^−1s^−1) HSA, 1.5T, 37° C. [2]: 14.0 ± 0.2 mM⁻¹ s⁻¹
Molecule: O=C(CCC(C(=O)[O-])N1CCN(C(CCC(=O)NCC(O)CO)C(=O)[O-])Cc2cccc(n2)CN(C(CCC(=O)NCC(O)CO)C(=O)[O-])CC1)NCC(O)CO.[Gd+3] (single isomer, unassigned) [Enantiomers pair C + racemic-isoserinol]
kx (s^−1) pseudo-first-order rate constant of acid catalyzed dissociation [1]: (4.5 ± 0.4) × 10^−6 s^−1

t1/2 (hour) dissociation half-life (t1/2 = ln2/kx) [5]: 120 ± 3 h | r1 (mM^−1s^−1) H2O, 0.5T, 37° C. [2]: 9.3 ± 0.1 mM⁻¹ s⁻¹ | r1 (mM^−1s^−1) H2O, 0.5T, 37° C. ([2]; listed as enantiomers pair C): 9.3 ± 0.1 mM⁻¹ s⁻¹
Molecule: RRR/SSS Gd(PCTA-tris-glutaric acid)
